Source: patent US9073855B2, “BCL-2 selective apoptosis-inducing agents for the treatment of cancer and immune diseases” (AbbVie Inc., priority 2008, dated 2015)

Assays:
GST-Bcl-2 = GST-Bcl-2 (Homo sapiens, UniProt P10415); experiment: TR-FRET binding assay, GST-Bcl-2 with F-Bak peptide probe; conditions: for Ki: TR-FRET Binding Affinity; for Binding selectivity ratio (Bcl-XL Ki/Bcl-2 Ki): ratio of TR-FRET Ki values, Bcl-XL over Bcl-2
In short: (§1)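 Competitive TR-FRET: GST-fusion protein, fluorescent Bak peptide probe and Tb-labelled anti-GST antibody incubated with compound dilution series (starting 50 μM as 2× stock, 10% DMSO) for 3 h at RT. Excitation 340/35 nm; Ki derived via Wang's exact competitive-binding equation.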

GST-Bcl-XL = GST-Bcl-XL (Homo sapiens, UniProt Q07817); experiment: TR-FRET binding assay, GST-Bcl-XL with F-Bak peptide probe; conditions: TR-FRET Binding Affinity
Sequence of GST-Bcl-XL (Q07817 whole entry): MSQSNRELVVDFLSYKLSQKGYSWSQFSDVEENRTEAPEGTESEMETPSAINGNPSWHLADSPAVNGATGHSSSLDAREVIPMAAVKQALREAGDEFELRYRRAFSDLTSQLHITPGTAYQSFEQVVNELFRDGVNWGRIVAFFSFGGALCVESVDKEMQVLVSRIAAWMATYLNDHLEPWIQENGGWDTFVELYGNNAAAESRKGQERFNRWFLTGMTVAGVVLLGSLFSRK
In short: as §1

[1] = GST-Bcl-XL, F-Bak peptide probe

Sequence of GST-Bcl-2 (P10415 whole entry, the tested form may be a part): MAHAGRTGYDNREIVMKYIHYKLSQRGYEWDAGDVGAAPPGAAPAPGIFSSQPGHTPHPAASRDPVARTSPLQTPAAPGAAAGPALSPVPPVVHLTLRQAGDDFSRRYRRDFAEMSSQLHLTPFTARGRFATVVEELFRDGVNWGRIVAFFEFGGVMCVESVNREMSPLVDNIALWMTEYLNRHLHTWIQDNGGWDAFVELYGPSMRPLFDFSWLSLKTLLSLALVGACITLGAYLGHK

Row | Structure (SMILES) | Ki (GST-Bcl-2; GST-Bcl-2, F-Bak peptide probe) [nM] | Binding selectivity ratio (Bcl-XL Ki/Bcl-2 Ki) (GST-Bcl-2) | Ki (GST-Bcl-XL; [1]) [nM] | Ki (GST-Bcl-2) [nM] | Ki (GST-Bcl-XL) [nM]
1 | CC1(C)CCC(CN2CCN(c3ccc(C(=O)NS(=O)(=O)c4cnc(OC[C@H]5CC[C@H](O)CC5)c(Cl)c4)c(Oc4cccc5[nH]ncc45)c3)CC2)=C(c2ccc(Cl)cc2)C1 [Example 421, Trans-N-({5-chloro-6-[(4-hydroxycyclohexyl)methoxy]pyridin-3-yl}sulfonyl)-4-(4-{[2-(4-chlorophenyl)-4,4-dimethylcyclohex-1-en-1-yl]methyl}piperazin-1-yl)-2-(1H-indazol-4-yloxy)benzamide] | 0.026 | 2089.5 | 54 |  | 
2 | CC1(C)CCC(CN2CCN(c3ccc(C(=O)NS(=O)(=O)c4cnc(O[C@@H]5CCN(CC(F)F)C5)c(Cl)c4)c(Oc4cccc5[nH]ncc45)c3)CC2)=C(c2ccc(Cl)cc2)C1 [Example 422, N-[(5-chloro-6-{[(3R)-1-(2,2-difluoroethyl)pyrrolidin-3-yl]oxy}pyridin-3-yl)sulfonyl]-4-(4-{[2-(4-chlorophenyl)-4,4-dimethylcyclohex-1-en-1-yl]methyl}piperazin-1-yl)-2-(1H-indazol-4-yloxy)benzamide] | 0.071 | 4073.4 | 290 |  | 
3 | CN(C)CC(=O)N1CCO[C@H](COc2ncc(S(=O)(=O)NC(=O)c3ccc(N4CCN(CC5=C(c6ccc(Cl)cc6)CC(C)(C)CC5)CC4)cc3Oc3cccc4[nH]cnc34)cc2Cl)C1 [Example 423, 2-(1H-benzimidazol-4-yloxy)-N-[(5-chloro-6-{[(2S)-4-(N,N-dimethylglycyl)morpholin-2-yl]methoxy}pyridin-3-yl)sulfonyl]-4-(4-{[2-(4-chlorophenyl)-4,4-dimethylcyclohex-1-en-1-yl]methyl}piperazin-1-yl)benzamide] | < 0.01 | 756.6 | 7.57 |  | 
4 | CN(C)CC(=O)N1CCO[C@@H](COc2ncc(S(=O)(=O)NC(=O)c3ccc(N4CCN(CC5=C(c6ccc(Cl)cc6)CC(C)(C)CC5)CC4)cc3Oc3cccc4[nH]cnc34)cc2Cl)C1 [Example 424, 2-(1H-benzimidazol-4-yloxy)-N-[(5-chloro-6-{[(2R)-4-(N,N-dimethylglycyl)morpholin-2-yl]methoxy}pyridin-3-yl)sulfonyl]-4-(4-{[2-(4-chlorophenyl)-4,4-dimethylcyclohex-1-en-1-yl]methyl}piperazin-1-yl)benzamide] | < 0.01 | 782.5 | 7.82 |  | 
5 | CN(C)CC(=O)N1CCO[C@H](COc2ncc(S(=O)(=O)NC(=O)c3ccc(N4CCN(CC5=C(c6ccc(Cl)cc6)CC(C)(C)CC5)CC4)cc3Oc3cccc4[nH]ncc34)cc2Cl)C1 [Example 425, N-[(5-chloro-6-{[(2S)-4-(N,N-dimethylglycyl)morpholin-2-yl]methoxy}pyridin-3-yl)sulfonyl]-4-(4-{[2-(4-chlorophenyl)-4,4-dimethylcyclohex-1-en-1-yl]methyl}piperazin-1-yl)-2-(1H-indazol-4-yloxy)benzamide] | 0.003 | 1282.2 | 3.99 |  | 
6 | CN(C)CC(=O)N1CCO[C@@H](COc2ncc(S(=O)(=O)NC(=O)c3ccc(N4CCN(CC5=C(c6ccc(Cl)cc6)CC(C)(C)CC5)CC4)cc3Oc3cccc4[nH]ncc34)cc2Cl)C1 [Example 426, N-[(5-chloro-6-{[(2R)-4-(N,N-dimethylglycyl)morpholin-2-yl]methoxy}pyridin-3-yl)sulfonyl]-4-(4-{[2-(4-chlorophenyl)-4,4-dimethylcyclohex-1-en-1-yl]methyl}piperazin-1-yl)-2-(1H-indazol-4-yloxy)benzamide] | 0.007 | 604.2 | 4.31 |  | 
7 | CC1(C)CCC(CN2CCN(c3ccc(C(=O)NS(=O)(=O)c4cnc(OCC5CCOCC5)c(Cl)c4)c(Oc4cccc5[nH]ncc45)c3)CC2)=C(c2ccc(Cl)cc2)C1 [Example 427, 4-(4-{[2-(4-chlorophenyl)-4,4-dimethylcyclohex-1-en-1-yl]methyl}piperazin-1-yl)-N-{[5-chloro-6-(tetrahydro-2H-pyran-4-ylmethoxy)pyridin-3-yl]sulfonyl}-2-(1H-indazol-4-yloxy)benzamide] | 0.002 | 34408.6 | 85.6 |  | 
8 | CC1(C)CCC(CN2CCN(c3ccc(C(=O)NS(=O)(=O)c4ccc(N[C@@H]5CCN(CC#N)C5)c([N+](=O)[O-])c4)c(Oc4cccc5[nH]cnc45)c3)CC2)=C(c2ccc(Cl)cc2)C1 [Example 428, 2-(1H-benzimidazol-4-yloxy)-4-(4-{[2-(4-chlorophenyl)-4,4-dimethylcyclohex-1-en-1-yl]methyl}piperazin-1-yl)-N-[(4-{[(3R)-1-(cyanomethyl)pyrrolidin-3-yl]amino}-3-nitrophenyl)sulfonyl]benzamide] | 0.003 | 5832.2 | 15.6 |  | 
9 | COCCOCCN1CC[C@@H](Nc2ccc(S(=O)(=O)NC(=O)c3ccc(N4CCN(CC5=C(c6ccc(Cl)cc6)CC(C)(C)CC5)CC4)cc3Oc3cccc4[nH]cnc34)cc2[N+](=O)[O-])C1 [Example 429, 2-(1H-benzimidazol-4-yloxy)-4-(4-{[2-(4-chlorophenyl)-4,4-dimethylcyclohex-1-en-1-yl]methyl}piperazin-1-yl)-N-{[4-({(3R)-1-[2-(2-methoxyethoxy)ethyl]pyrrolidin-3-yl}amino)-3-nitrophenyl]sulfonyl}benzamide] | < 0.01 | 140.7 | 1.41 |  | 
10 | CN(C)CC(=O)N1CC[C@@H](Nc2ccc(S(=O)(=O)NC(=O)c3ccc(N4CCN(CC5=C(c6ccc(Cl)cc6)CC(C)(C)CC5)CC4)cc3Oc3cccc4[nH]cnc34)cc2[N+](=O)[O-])C1 [Example 430, 2-(1H-benzimidazol-4-yloxy)-4-(4-{[2-(4-chlorophenyl)-4,4-dimethylcyclohex-1-en-1-yl]methyl}piperazin-1-yl)-N-[(4-{[(3R)-1-(N,N-dimethylglycyl)pyrrolidin-3-yl]amino}-3-nitrophenyl)sulfonyl]benzamide] | < 0.01 | 99.8 | 0.998 |  | 
11 | CC1(C)CCC(CN2CCN(c3ccc(C(=O)NS(=O)(=O)c4ccc(NCC5CN(CC#N)CCO5)c([N+](=O)[O-])c4)c(Oc4cccc5[nH]cnc45)c3)CC2)=C(c2ccc(Cl)cc2)C1 (stereo not drawn) [Example 431, 2-(1H-benzimidazol-4-yloxy)-4-(4-{[2-(4-chlorophenyl)-4,4-dimethylcyclohex-1-en-1-yl]methyl}piperazin-1-yl)-N-{[4-({[4-(cyanomethyl)morpholin-2-yl]methyl}amino)-3-nitrophenyl]sulfonyl}benzamide] | < 0.01 | 677.4 | 6.77 |  | 
12 | CC1(C)CCC(CN2CCN(c3ccc(C(=O)NS(=O)(=O)c4ccc(NCC5CN(C6CC6)CCO5)c([N+](=O)[O-])c4)c(Oc4cccc5[nH]cnc45)c3)CC2)=C(c2ccc(Cl)cc2)C1 (stereo not drawn) [Example 432, 2-(1H-benzimidazol-4-yloxy)-4-(4-{[2-(4-chlorophenyl)-4,4-dimethylcyclohex-1-en-1-yl]methyl}piperazin-1-yl)-N-[(4-{[(4-cyclopropylmorpholin-2-yl)methyl]amino}-3-nitrophenyl)sulfonyl]benzamide] | 0.023 | 408.8 | 9.3 |  | 
13 | CC1(C)CCC(CN2CCN(c3ccc(C(=O)NS(=O)(=O)c4ccc(NCC5CN(C6COC6)CCO5)c([N+](=O)[O-])c4)c(Oc4cccc5[nH]cnc45)c3)CC2)=C(c2ccc(Cl)cc2)C1 (stereo not drawn) [Example 433, 2-(1H-benzimidazol-4-yloxy)-4-(4-{[2-(4-chlorophenyl)-4,4-dimethylcyclohex-1-en-1-yl]methyl}piperazin-1-yl)-N-[(3-nitro-4-{[(4-oxetan-3-ylmorpholin-2-yl)methyl]amino}phenyl)sulfonyl]benzamide] | < 0.01 |  | 2.29 |  | 
14 | CC1(C)CCC(CN2CCN(c3ccc(C(=O)NS(=O)(=O)c4cnc(O[C@@H]5CCN(C(CF)CF)C5)c(Cl)c4)c(Oc4cccc5[nH]ncc45)c3)CC2)=C(c2ccc(Cl)cc2)C1 [Example 434, N-{[5-chloro-6-({(3R)-1-[2-fluoro-1-(fluoromethyl)ethyl]pyrrolidin-3-yl}oxy)pyridin-3-yl]sulfonyl}-4-(4-{[2-(4-chlorophenyl)-4,4-dimethylcyclohex-1-en-1-yl]methyl}piperazin-1-yl)-2-(1H-indazol-4-yloxy)benzamide] | 0.052 | 1459.4 | 75.5 |  | 
15 | CC1(C)CCC(CN2CCN(c3ccc(C(=O)NS(=O)(=O)c4ccc(N[C@@H]5CCN(C(CF)CF)C5)c([N+](=O)[O-])c4)c(Oc4cccc5[nH]ncc45)c3)CC2)=C(c2ccc(Cl)cc2)C1 [Example 435, 4-(4-{[2-(4-chlorophenyl)-4,4-dimethylcyclohex-1-en-1-yl]methyl}piperazin-1-yl)-N-{[4-({(3R)-1-[2-fluoro-1-(fluoromethyl)ethyl]pyrrolidin-3-yl}amino)-3-nitrophenyl]sulfonyl}-2-(1H-indazol-4-yloxy)benzamide] | 0.017 |  | 32.9 |  | 
16 | CC1(C)CCC(CN2CCN(c3ccc(C(=O)NS(=O)(=O)c4ccc(NC5CCN(C6CC6)CC5)c([N+](=O)[O-])c4)c(Oc4cccc5[nH]ncc45)c3)CC2)=C(c2ccc(Cl)cc2)C1 [Example 436, 4-(4-{[2-(4-chlorophenyl)-4,4-dimethylcyclohex-1-en-1-yl]methyl}piperazin-1-yl)-N-({4-[(1-cyclopropylpiperidin-4-yl)amino]-3-nitrophenyl}sulfonyl)-2-(1H-indazol-4-yloxy)benzamide] |  |  |  | 0.011 | 6.5
